Key:
[1] = Uptake and excretion from red cabbage broth, human self-experiment (24 h urine, LC-MS/MS); assay type: in vivo; details: male, 500 mL red cabbage broth, oral, n = 3, mean ± SD, read-out: recovery in collected urine within 24 h compared to the amount of intake
Procedure: To obtain the GLS degradation products allyl HTT and 4-MSOB HTT in the food matrix, a kitchen practice approach was applied. Therefore, 1.2 kg of fresh conventional red cabbage (Brassica oleracea var. capitata f. rubra) bought in a supermarket were cut into approximately 4 × 4 × 4 cm pieces and boiled for 1 h in 3 L of tap water without additives in a stainless-steel pot with a glass lid on a kitchen stove. After cooling to room temperature, three male authors of this study (27–39 years) drank 500 mL of the red cabbage boiling solution (broth) without red cabbage pieces. […] In total, 950 μL of 1:1 diluted red cabbage boiling solution was measured in 3 different ways (each prepared as duplicates): (1) Spiked with 50 μL water, (2) spiked with 50 μL of a solution with concentrations of 1 μM for allyl HTT and 5 μM for 4-MSOB HTT, or (3) spiked with 50 μL of a solution with concentrations of 3 μM for allyl HTT and 10 μM for 4-MSOB HTT. Urine samples were measured in three different ways (each prepared as duplicates): 200 μL of undiluted urine was spiked with (1) 1 μL of water, (2) 1 μL of a solution with concentrations of 4 μM for allyl HTT and 8 μM for 4-MSOB HTT, or (3) 1.5 μL of a solution with concentrations of 4 μM for allyl HTT and 8 μM for 4-MSOB HTT. […]

Caco-2 cells = experiment: Cytotoxicity, neutral red uptake assay; assay type: cell-based, human; details: Caco-2, neutral red uptake assay, up to 100 μM, 24 h
Procedure: (§1) To determine the cytotoxicity of allyl HTT and 4-MSOB HTT, HepG2 and Caco-2 cells were seeded in a 96-well TC-plate (standard F, sterile, from Sarsted, Nümbrecht, Germany) using a seeding density of 20,000 cells/well. After 24 h, the medium was exchanged to 200 μL pure medium or 200 μL medium containing allyl HTT or 4-MSOB HTT with concentrations in the range of 0.1–100 μM. The cells were treated for 24 h under cell culture conditions (prepared for three biological replicates, every 3 technical replicates). Cell viability was determined using the MTT assay and the neutral red uptake assay based on Schröter et al. ([27]). In the case of MTT assay, after 24 h of HTT treatment, 20 μL of MTT solution (75 mg MTT in 15 mL PBS) were added, and cells were incubated for 60 min under cell culture conditions. Afterward, the supernatant was removed and 100 μL of lysis buffer (5% formic acid in isopropanol) was added and the plate was shaken for 10 min at 300 rpm before measuring the absorption at 550 ± 5 nm (reference 690 ± 5 nm) by a Tecan i-control Infinite M200 PRO plate reader (Crailsheim, Germany). In the case of the neutral red uptake assay, the supernatant was removed after 24 h HTT treatment, and 100 μL neutral red solution (40 mg neutral red in 10 mL PBS, freshly diluted 1:100 with medium and incubated for 24 h under cell culture conditions) was added. After incubation of neutral red solution for 2 h under cell culture conditions, the supernatant was removed, and cells were washed with 150 μL of PBS. After removing PBS, 150 μL desorb solution (49.5% water/49.5% ethanol/1% acetic acid) was added and the plate was shaken for 10 min at 300 rpm before measuring the absorption at 540 ± 5 nm by Tecan i-control Infinite M200 PRO plate reader. The mean ± SD is used for presenting the results of three technical replicates for each data point of the three biological replicates.

HepG2 cells [2] = experiment: Cytotoxicity, neutral red uptake assay; assay type: cell-based, human; details: up to 100 μM, 24 h
Procedure: as §1

HepG2 cells [3] = experiment: Metabolite formation in medium after 24 h incubation with HepG2 cells (HPLC-UV, qToF); assay type: in vitro ADME, human; details: 100 μM, 24 h with HepG2 cells, vs spiked medium without cells
Procedure: Additionally, the removed non-spiked and spiked medium after 24 h of cell incubation was measured by the UPLC-DAD system (see Section Stability of 4-Hydroxythiazolidine-2-Thiones in a Stomach Model) and HPLC method 2 at 280 ± 2 nm and after 10-fold pre-concentration, using solid-phase extraction (Chromabond®, C18, 3 mL/500 mg, Macherey-Nagel) by an HPLC-DAD-ESI-qToF system (Agilent 1290 Infinity II for the binary pump, Agilent 1290 Infinity for autosampler, degasser, column oven, Agilent 1260 Infinity for DAD detector, and Agilent 1260 Infinity II, for an isocratic pump for adding reference mass solution) using A = water and B = MeCN: 0 to 3 min 2% B, an increase to 14 min up to 98% B, holding for 5.4 min followed by a decrease to 2% B at 20 min, and re-equilibration with 2% B for 4.5 min, using a flow rate of 300 μL/min, Agilent Zorbax Eclipse Plus C8 column (see Section Stability of 4-Hydroxythiazolidine-2-Thiones in a Stomach Model), and a column oven temperature of 35°C. […]

| Compound | dose excreted [1] [%] | effect on cell viability compared to untreated cells (Caco-2 cells) | effect on cell viability compared to untreated cells (HepG2 cells [2]) | newly formed metabolites in spiked medium (LC-UV chromatogram) (HepG2 cells [3]) |
| --- | --- | --- | --- | --- |
| C[S+]([O-])CCCCN1C(=S)SCC1O (centres unmarked) [4-MSOB HTT, 4-hydroxy-3-(4-(methylsulfinyl)butyl)thiazolidine-2-thione] | 21 ± 4 | did not show any effect on cell viability | did not show any effect on cell viability | a new peak was observed |
| C=CCN1C(=S)SCC1O (centres unmarked) [allyl HTT, 3-allyl-4-hydroxythiazolidine-2-thione] | 18 ± 5 | did not show any effect on cell viability | did not show any effect on cell viability | did not show any additional signals |
